Test results: PubChem BioAssay AID248 (DTP/NCI, 2004)
Several values for one entry are separate records, joined by “and”; a condition that tells them apart may be missing. Identical values can stand only once. Inconclusive results and toxic doses are left out.

Test system: L1210 leukemia ip in BDF1 mice, survival T/C
Assay: NCI In Vivo Anticancer Drug Screen. Data for tumor model L1210 Leukemia (intraperitoneal) in B6D2F1 (BDF1) mice
Settings: endpoint: mean survival time, higher = longer survival
Outline: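 Mice bearing the transplanted tumor received compound or vehicle. Survival of the treated group was divided by that of the vehicle-treated control group to give the ratio.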

[1] = dose: 100.0 mg/kg/injection, schedule: Q01DX001 (ip), vehicle: saline
[2] = dose: 200.0 mg/kg/injection, schedule: Q01DX001 (ip), vehicle: saline
[3] = dose: 400.0 mg/kg/injection, schedule: Q01DX001 (ip), vehicle: saline
[4] = dose: 25.0 mg/kg/injection, schedule: Q01DX009 (ip), vehicle: other
[5] = dose: 50.0 mg/kg/injection, schedule: Q01DX009 (ip), vehicle: other
[6] = dose: 100.0 mg/kg/injection, schedule: Q01DX009 (ip), vehicle: other
[7] = dose: 200.0 mg/kg/injection, schedule: Q01DX009 (ip), vehicle: other
[8] = dose: 100.0 mg/kg/injection, schedule: Q04DX003 (ip), vehicle: saline
[9] = dose: 200.0 mg/kg/injection, schedule: Q04DX003 (ip), vehicle: saline
[10] = dose: 400.0 mg/kg/injection, schedule: Q04DX003 (ip), vehicle: saline
[11] = dose: 100.0 mg/kg/injection, schedule: Q01DX009 (ip), vehicle: saline with Tween-80
[12] = dose: 200.0 mg/kg/injection, schedule: Q01DX009 (ip), vehicle: saline with Tween-80
[13] = dose: 100.0 mg/kg/injection, schedule: Q04DX003 (ip), vehicle: Klucel (hydroxypropylcellulose) (HPC)
[14] = dose: 200.0 mg/kg/injection, schedule: Q04DX003 (ip), vehicle: Klucel (hydroxypropylcellulose) (HPC)
[15] = dose: 400.0 mg/kg/injection, schedule: Q04DX003 (ip), vehicle: Klucel (hydroxypropylcellulose) (HPC)
[16] = dose: 100.0 mg/kg/injection, schedule: Q04DX003 (ip), vehicle: saline with Tween-80

Cc1ccc2cccc3c2c1S(=O)(=O)c1cccc2cccc(c12)C3
T/C [1]: 98 % of control | T/C [2]: 104 % of control | T/C [3]: 93 % of control

COc1ccc2c(c1)C(Br)N(S(=O)(=O)c1ccc(C)cc1)CCC2=O (centres undefined)
T/C [4]: 97 % of control | T/C [5]: 95 % of control | T/C [6]: 92 % of control | T/C (dose: 100.0 mg/kg/injection, schedule: Q04DX003 (ip), vehicle: other): 92 % of control | T/C [7]: 104 % of control | T/C (dose: 200.0 mg/kg/injection, schedule: Q04DX003 (ip), vehicle: other): 97 % of control | T/C (dose: 400.0 mg/kg/injection, schedule: Q04DX003 (ip), vehicle: other): 89 % of control

N=C(N)c1ncn(C2CC(O)C(CO)O2)c1N (centres undefined)
T/C [1]: 106 % of control | T/C [2]: 103 % of control

CCC(C)NC(C)=O (centres undefined)
T/C [8]: 115 % of control | T/C [9]: 97 % of control | T/C [10]: 110 % of control

O=C1CCN(C2CC(O)C(CO)C2)C(=O)N1 (centres undefined)
T/C [1]: 101 % of control | T/C [2]: 95 % of control | T/C [3]: 101 % of control

CC1(C)CC2(C)CC(=O)C1C(C(=O)O)C2C(=O)O (centres undefined)
T/C [1]: 98 % of control | T/C (dose: 100.0 mg/kg/injection, schedule: Q01DX009 (ip), vehicle: saline): 93 % of control | T/C [8]: 96 % of control | T/C [2]: 90 % of control | T/C (dose: 200.0 mg/kg/injection, schedule: Q01DX009 (ip), vehicle: saline): 93 % of control | T/C [9]: 91 % of control | T/C [3]: 91 % of control | T/C (dose: 400.0 mg/kg/injection, schedule: Q01DX009 (ip), vehicle: saline): 92 % of control | T/C [10]: 89 % of control

COc1ccc2ccccc2c1/C=N/N1CCCCC1
T/C [11]: 100 % of control | T/C [12]: 93 % of control | T/C (dose: 400.0 mg/kg/injection, schedule: Q01DX009 (ip), vehicle: saline with Tween-80): 100 % of control

CC1C(=O)C=C2CCCC(C)(C)C2(C)C1(O)CCc1ccoc1 (centres undefined)
T/C [1]: 103 % of control | T/C [2]: 97 % of control | T/C [3]: 107 % of control

O=S1(=O)CC(Cl)C1
T/C (dose: 50.0 mg/kg/injection, schedule: Q01DX001 (ip), vehicle: carboxymethylcellulose (CMC)): 107 % of control | T/C (dose: 100.0 mg/kg/injection, schedule: Q01DX001 (ip), vehicle: carboxymethylcellulose (CMC)): 89 % of control | T/C (dose: 200.0 mg/kg/injection, schedule: Q01DX001 (ip), vehicle: carboxymethylcellulose (CMC)): 97 % of control

CC(C)(C)c1cc(CO)cc(C(C)(C)C)c1O
T/C (dose: 100.0 mg/kg/injection, schedule: Q01DX009 (ip), vehicle: Klucel (hydroxypropylcellulose) (HPC)): 108 % of control | T/C [13]: 91 % of control | T/C (dose: 200.0 mg/kg/injection, schedule: Q01DX009 (ip), vehicle: Klucel (hydroxypropylcellulose) (HPC)): 100 % of control | T/C [14]: 92 % of control | T/C (dose: 400.0 mg/kg/injection, schedule: Q01DX009 (ip), vehicle: Klucel (hydroxypropylcellulose) (HPC)): 96 % of control | T/C [15]: 105 % of control

COC(=O)c1cn2c(c1C(=O)OC)CCC2
T/C (dose: 12.5 mg/kg/injection, schedule: Q01DX009 (ip), vehicle: other): 93 % of control | T/C [4]: 96 % of control | T/C [5]: 222 % of control | T/C (dose: 59.0 mg/kg/injection, schedule: Q01DX009 (ip), vehicle: other): 94 % of control and 113 % of control | T/C (dose: 89.0 mg/kg/injection, schedule: Q01DX009 (ip), vehicle: other): 99 % of control and 102 % of control | T/C [6]: 459 % of control | T/C (dose: 133.0 mg/kg/injection, schedule: Q01DX009 (ip), vehicle: other): 93 % of control and 106 % of control | T/C (dose: 300.0 mg/kg/injection, schedule: Q01DX009 (ip), vehicle: other): 116 % of control

N/C(=N\[N+](=O)[O-])N(Cc1ccccc1)/N=C/c1ccccc1
T/C (dose: 87.5 mg/kg/injection, schedule: Q04DX003 (ip), vehicle: Klucel (hydroxypropylcellulose) (HPC)): 92 % of control | T/C (dose: 175.0 mg/kg/injection, schedule: Q04DX003 (ip), vehicle: Klucel (hydroxypropylcellulose) (HPC)): 92 % of control | T/C (dose: 350.0 mg/kg/injection, schedule: Q04DX003 (ip), vehicle: Klucel (hydroxypropylcellulose) (HPC)): 88 % of control

NNC(=O)C1CC12CC2 (centres undefined)
T/C [1]: 106 % of control and 109 % of control | T/C [2]: 103 % of control

CCOC(=O)C(CCC(C)=O)C1=NC(C)(C)CC(C)O1 (centres undefined)
T/C (dose: 100.0 mg/kg/injection, schedule: Q01DX009 (ip), vehicle: saline sonified): 102 % of control | T/C (dose: 200.0 mg/kg/injection, schedule: Q01DX009 (ip), vehicle: saline sonified): 109 % of control | T/C (dose: 400.0 mg/kg/injection, schedule: Q01DX009 (ip), vehicle: saline sonified): 98 % of control

ONC12CCCCC1(Cl)CCCC2 (centres undefined)
T/C (dose: 150.0 mg/kg/injection, schedule: Q01DX001 (ip), vehicle: saline): 94 % of control

O=C1C(Cl)=C(Cl)C(=O)N1c1ccc(Cl)c(Cl)c1
T/C [11]: 98 % of control | T/C [16]: 91 % of control | T/C [12]: 101 % of control | T/C (dose: 200.0 mg/kg/injection, schedule: Q04DX003 (ip), vehicle: saline with Tween-80): 87 % of control | T/C (dose: 400.0 mg/kg/injection, schedule: Q04DX003 (ip), vehicle: saline with Tween-80): 94 % of control

COC1(c2ccco2)OC1(C)C (centres undefined)
T/C (dose: 5.0 mg/kg/injection, schedule: Q01DX009 (ip), vehicle: saline with Tween-80): 94 % of control | T/C (dose: 5.0 mg/kg/injection, schedule: Q04DX003 (ip), vehicle: saline with Tween-80): 96 % of control | T/C (dose: 10.0 mg/kg/injection, schedule: Q01DX009 (ip), vehicle: saline with Tween-80): 97 % of control | T/C (dose: 10.0 mg/kg/injection, schedule: Q04DX003 (ip), vehicle: saline with Tween-80): 102 % of control | T/C (dose: 20.0 mg/kg/injection, schedule: Q01DX009 (ip), vehicle: saline with Tween-80): 116 % of control | T/C (dose: 20.0 mg/kg/injection, schedule: Q04DX003 (ip), vehicle: saline with Tween-80): 98 % of control

c1ccc2c(c1)nnn1c3ccccc3nc21
T/C (dose: 25.0 mg/kg/injection, schedule: Q04DX003 (ip), vehicle: Klucel (hydroxypropylcellulose) (HPC)): 102 % of control | T/C (dose: 50.0 mg/kg/injection, schedule: Q04DX003 (ip), vehicle: Klucel (hydroxypropylcellulose) (HPC)): 94 % of control | T/C (dose: 100.0 mg/kg/injection, schedule: Q01DX001 (ip), vehicle: other): 97 % of control | T/C [6]: 101 % of control | T/C [13]: 104 % of control | T/C (dose: 200.0 mg/kg/injection, schedule: Q01DX001 (ip), vehicle: other): 108 % of control and 92 % of control | T/C [7]: 86 % of control | T/C (dose: 400.0 mg/kg/injection, schedule: Q01DX001 (ip), vehicle: other): 95 % of control and 92 % of control | T/C (dose: 400.0 mg/kg/injection, schedule: Q01DX009 (ip), vehicle: other): 90 % of control

N#C/C(=C\c1ccc([N+](=O)[O-])o1)[N+](=O)[O-]
T/C (dose: 25.0 mg/kg/injection, schedule: Q01DX009 (ip), vehicle: saline with Tween-80): 110 % of control | T/C (dose: 50.0 mg/kg/injection, schedule: Q01DX009 (ip), vehicle: saline with Tween-80): 96 % of control | T/C [11]: 104 % of control | T/C [16]: 106 % of control

C/C(=N\O)c1ccc2nc(C)cc(Cl)c2c1
T/C [1]: 102 % of control | T/C [2]: 109 % of control | T/C [3]: 95 % of control

CCCCCCCCCCCCCCCCCC(=O)CS(C)=O (centres undefined)
T/C [13]: 94 % of control | T/C [14]: 91 % of control | T/C [15]: 96 % of control

ClCCCN1CCN(CCCCl)CC1
T/C (dose: 6.25 mg/kg/injection, schedule: Q01DX009 (ip), vehicle: distilled water + alcohol): 93 % of control | T/C (dose: 12.5 mg/kg/injection, schedule: Q01DX009 (ip), vehicle: distilled water + alcohol): 95 % of control | T/C (dose: 25.0 mg/kg/injection, schedule: Q01DX009 (ip), vehicle: distilled water + alcohol): 101 % of control | T/C (dose: 50.0 mg/kg/injection, schedule: Q01DX009 (ip), vehicle: distilled water + alcohol): 113 % of control | T/C (dose: 100.0 mg/kg/injection, schedule: Q01DX009 (ip), vehicle: distilled water + alcohol): 114 % of control
